Laboratory results from PMC6337391 (Molecules, 2019).

Key:
[1] = system: L929 mouse fibroblasts cells; design: method as in PMID 25798685; conditions: 24-h incubation, cited from earlier work
[2] = molecular target: T1, Aβ40 (Homo sapiens, UniProt P05067); test: Circular dichroism study of Aβ40 aggregation; conditions: 50 µM compound, 50 µM Aβ40 (1:1), PB pH 7.33, 33 °C, 40 days
T1 construct: Amyloid peptide Aβ40 was purchased from AnaSpec Co; purchased AnaSpec Co. (Fremont, CA, USA)
Source text: The pathogenesis of Alzheimer’s disease (AD) is widely associated with the aggregation of β-amyloid peptide (Aβ) either to soluble oligomers or to higher-order polymeric insoluble fibrils. As a result, one of the main therapeutic strategies against AD targets the aggregation process of Aβ, and a great number of small molecules are being investigated for their potential to intervene in the assembly of Aβ and inhibit its neurotoxicity in vitro and in vivo [64]. Circular dichroism (CD) spectroscopy is commonly used to probe the secondary structure of polypeptides and to monitor conformational changes and interactions of polypeptides with small molecules. The typical aggregation process of Aβ produces characteristic CD spectra over time that reflect the conformational changes that occur as the random coil monomers are converted into β-sheet oligomers, and then gradually to larger β-sheet formations that finally produce amyloid fibrils. CD is, therefore, a valuable tool to monitor the aggregation process of Aβ and to study the effect of potential aggregation inhibitors. To further investigate the pleiotropic effects of chalcones against AD, selected compounds from our library, were subjected to CD studies in order to evaluate their potential to interfere with the aggregation process of Aβ40. […] The aggregation spectra of plain Aβ40 show at day 0 the typical random coil peak (negative maximum at 198 nm) the intensity of which gradually decreases as the peptide forms β–sheet structures (negative maximum at 222 nm, day 15) that further aggregate to higher order polymeric fibrils. The precipitation of the insoluble fibrils from solution eventually results in the loss of CD signal (days 30 and 40). […] In view of the above results, chalcone derivatives bearing a three-carbon chain linker, specifically c2, c3, and c4, were subsequently studied in order to assess the effect of further derivatization and the presence of the chalcone moiety in the structure. […] Overall, our CD study identified three new structures capable of interfering with the aggregation process of Aβ, out of which compounds c2 and c4 display additional protective actions against AD and add to the pleiotropic profile of the chalcone derivatives.
Preparation of Aβ stocks and solutions. Amyloid peptide Aβ40 was purchased from AnaSpec Co. (Fremont, CA, USA) (>95% pure). Aβ40 was gently dissolved without vortexing in Type 1 (Milli-Q) water to a final concentration of 100 μM. Solutions of Aβ in phosphate buffer (PB, 10 mM, pH 7.33) were prepared by adding equal volumes of PB to aliquots of the aqueous solution stock to achieve final concentration of 50 µM. The proper amount of the compounds c2, c3, c4, di, dii, and dvi were added to the Aβ solutions to achieve concentration of 50 μM. The secondary structural changes of Aβ were monitored for 40 days by CD. During this period, the amyloid peptide solutions were kept at an incubator at 33 °C under quiescent conditions.
Circular dichroism measurements. CD spectra were recorded on a JASCO J-715 spectropolarimeter (Jasco Co., Tokyo, Japan), at 33 °C in the range of 190–260 nm with a 1 mm path length quartz cuvette. Each spectrum was the average of three scans at a speed of 100 nm·min^−1 and a resolution of 0.5 nm. Three independent experiments were run for each condition and in each case solutions of plain Aβ were run as control (Figure 8). The analysis of the CD data was performed using the OriginPro 9 program.

[3] = molecular target: T2, soybean lipoxygenase (Glycine max, UniProt P08170); design: method as in PMID 25798685; conditions: cited from earlier work
T2 sequence (P08170 1-839): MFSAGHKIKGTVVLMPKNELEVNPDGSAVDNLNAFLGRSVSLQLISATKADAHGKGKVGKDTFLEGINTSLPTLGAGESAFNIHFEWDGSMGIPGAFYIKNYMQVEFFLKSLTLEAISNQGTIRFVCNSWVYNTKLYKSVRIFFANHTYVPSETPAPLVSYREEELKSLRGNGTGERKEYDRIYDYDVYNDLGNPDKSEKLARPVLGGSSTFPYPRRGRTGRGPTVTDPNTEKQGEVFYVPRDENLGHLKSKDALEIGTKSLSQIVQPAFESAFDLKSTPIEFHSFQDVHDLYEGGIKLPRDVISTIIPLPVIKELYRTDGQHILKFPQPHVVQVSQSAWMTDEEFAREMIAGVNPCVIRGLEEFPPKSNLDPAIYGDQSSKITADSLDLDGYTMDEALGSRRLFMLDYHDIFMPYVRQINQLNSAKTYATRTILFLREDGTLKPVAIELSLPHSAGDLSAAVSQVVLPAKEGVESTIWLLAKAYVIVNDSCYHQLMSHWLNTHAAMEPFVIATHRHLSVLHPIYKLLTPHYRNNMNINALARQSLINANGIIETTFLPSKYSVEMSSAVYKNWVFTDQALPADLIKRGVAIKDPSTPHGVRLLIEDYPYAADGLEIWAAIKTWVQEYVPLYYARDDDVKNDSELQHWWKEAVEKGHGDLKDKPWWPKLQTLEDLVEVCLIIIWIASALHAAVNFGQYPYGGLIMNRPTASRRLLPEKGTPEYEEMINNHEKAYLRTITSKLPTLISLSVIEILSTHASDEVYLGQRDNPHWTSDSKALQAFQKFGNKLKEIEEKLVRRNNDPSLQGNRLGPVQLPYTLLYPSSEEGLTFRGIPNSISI

[4] = design: method as in PMID 25798685; conditions: DPPH, cited from earlier work
[5] = design: method as in PMID 25798685; conditions: cited from earlier work
[6] = molecular target: acetyl-cholinesterase (AChE) (Electrophorus electricus, UniProt O42275); conditions: cited from earlier work
Sequence of acetyl-cholinesterase (AChE) (O42275 24-633): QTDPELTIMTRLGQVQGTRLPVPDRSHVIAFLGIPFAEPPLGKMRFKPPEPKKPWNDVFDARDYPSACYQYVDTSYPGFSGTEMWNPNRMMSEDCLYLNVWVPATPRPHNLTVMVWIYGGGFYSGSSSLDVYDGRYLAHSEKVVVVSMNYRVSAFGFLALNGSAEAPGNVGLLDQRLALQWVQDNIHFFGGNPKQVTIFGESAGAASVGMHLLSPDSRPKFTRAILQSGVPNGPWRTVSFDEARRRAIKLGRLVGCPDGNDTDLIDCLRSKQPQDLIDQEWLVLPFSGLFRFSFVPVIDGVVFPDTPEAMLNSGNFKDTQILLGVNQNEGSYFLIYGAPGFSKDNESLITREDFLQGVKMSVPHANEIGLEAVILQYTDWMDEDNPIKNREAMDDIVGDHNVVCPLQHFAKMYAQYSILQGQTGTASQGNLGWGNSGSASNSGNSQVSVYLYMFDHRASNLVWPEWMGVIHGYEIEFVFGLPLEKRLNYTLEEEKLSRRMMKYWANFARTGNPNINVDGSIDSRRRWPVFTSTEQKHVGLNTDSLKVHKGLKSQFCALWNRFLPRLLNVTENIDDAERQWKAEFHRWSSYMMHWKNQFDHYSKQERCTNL

[7] = design: method as in PMID 25798685; conditions: RP-TLC, methanol/water 70/30, SD < 10%; cited from earlier work
[8] = In vitro lipid peroxidation of liposomes
[9] = design: method as in PMID 25798685; conditions: cited from earlier work; remark: listed apart in the source
[10] = molecular target: T3, human h-15-LOX-1 (Homo sapiens, UniProt P16050); test: Human h-15-LOX-1 screening UV assay; type: biochemical; conditions: read-out: h-15-LOX-1 Inhb. IC50
T3 sequence (P16050 1-662): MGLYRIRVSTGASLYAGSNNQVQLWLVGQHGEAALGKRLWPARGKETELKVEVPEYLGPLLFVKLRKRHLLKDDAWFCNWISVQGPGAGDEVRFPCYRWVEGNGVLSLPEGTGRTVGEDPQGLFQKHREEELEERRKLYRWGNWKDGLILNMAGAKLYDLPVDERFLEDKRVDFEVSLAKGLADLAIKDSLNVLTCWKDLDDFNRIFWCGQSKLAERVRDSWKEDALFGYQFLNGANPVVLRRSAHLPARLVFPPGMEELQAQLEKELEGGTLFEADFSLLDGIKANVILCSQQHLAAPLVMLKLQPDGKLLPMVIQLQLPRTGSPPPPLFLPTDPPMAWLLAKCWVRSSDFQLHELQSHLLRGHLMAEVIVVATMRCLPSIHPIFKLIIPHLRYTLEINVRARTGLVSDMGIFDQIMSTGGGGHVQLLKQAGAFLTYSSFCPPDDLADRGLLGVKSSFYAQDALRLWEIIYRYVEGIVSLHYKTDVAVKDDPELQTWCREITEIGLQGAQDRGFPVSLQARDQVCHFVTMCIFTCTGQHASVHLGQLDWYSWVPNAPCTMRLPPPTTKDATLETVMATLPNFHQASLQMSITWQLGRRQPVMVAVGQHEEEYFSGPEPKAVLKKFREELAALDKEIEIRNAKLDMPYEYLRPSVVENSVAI
Method: The residual enzyme activity was measured after 10 min pre-incubation with the tested compounds at room temperature. […] Compound c11 follows.
The assay buffer consists of HEPES titrated to pH 7.5 using a concentrated aqueous solution of NaOH. Linoleic acid (LA) was used as a substrate. The linear absorbance increase in absence of the inhibitor was set as 100%, whereas the absorbance increase in absence of the enzyme was set to 0%. All experiments were performed in triplicate and the average triplicate values and their standard deviations are plotted. The vertical axis describes the residual enzyme activity percent % of the human h-15-LOX-1, whereas the horizontal axis describes the concentration of 50 µM of the compounds. The half maximal inhibitor concentration (IC50) of the inhibitors for h-15-LOX-1 was determined using the same assay (Figure 6 and Figure 7).

T1 sequence (P05067 672-711 limits assumed): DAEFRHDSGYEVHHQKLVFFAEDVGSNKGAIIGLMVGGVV

| SMILES | 1 μM Average (% pi) ± σ [1] [%] | 10 μM Average (% pi) ± σ [1] [%] | 20 μM Average (% pi) ± σ [1] [%] | 50 μM Average (% pi) ± σ [1] [%] | 100 μM Average (% pi) ± σ [1] [%] | effect on the aggregation process of Aβ40 (CD spectra) [2] | % LOX Inhb. @ 100 μM [3] | RA% 100 μM 20 min [4] | RA% 100 μM 60 min [4] | ABTS•+ Inhb. % @ 100 μM [5] | % AChE Inhb. @ 100 μM [6] [%] | RM [7] | % Inhb. of Liposomes LP @ 100 μM [8] [%] | AAPH% @ 100 μM (anti-lipid peroxidation) [9] [%] | IC50 [10] [µM] | IC50 ([3]; soybean LOX) [µM] |
| --- | --- | --- | --- | --- | --- | --- | --- | --- | --- | --- | --- | --- | --- | --- | --- | --- |
| O=C(/C=C/c1cccc2ccccc12)c1ccc(OCCCOc2ccc(C(=O)/C=C/c3cccc4ccccc34)cc2)cc1 [c4, (2E,2′E)-1, 1′-((propane-1,3-diylbis-(oxy))bis-(4,1-phenylene)) bis-(3-(naphthalen-1-yl)prop-2-en-1-one)] | 29.5 ± 3.5 | 42 ± 4.6 | 46 ± 5.6 | 67 ± 9.2 | 67 ± 9.2 | stabilized β-sheet assemblies that did not evolve further into insoluble fibrillar aggregates | 100% | 19% | 50% | no | 58 | 0.43 | 3 | 95 | – | – |
| CC(=O)c1ccc(OCCCOc2ccc(C(C)=O)cc2)cc1 [dii, 1,1′-((propane-1,3-diylbis-(oxy))bis(4,1-phenylene))diethanone] | 9 ± 4.5 | 8.5 ± 4.24 | 13 ± 4.5 | 42 ± 3.5 | 42 ± 3.5 | modified the aggregation course of Aβ40 by stabilizing a β-sheet structure that did not seem to evolve further | no | No | no | No | 20 | −0.23 | – | 20 | – | – |
| CN(C)c1ccc(/C=C/C=C/C(=O)c2ccc(OCCCOc3ccc(C(=O)/C=C/C=C/c4ccc(N(C)C)cc4)cc3)cc2)cc1 [c3, (2E,2′E, 4E, 4′E)-1,1′-((propane-1,3-diylbis-(oxy))bis(4,1-phenylene)) bis-(5-(4-(dimethylamino)phenyl)penta-2,4-dien-1-one)] | 81 ± 0.8 | 90 ± 1 | 100 ± 0 | 100 ± 0 | 100 ± 0 | no significant effect on the aggregation process of Aβ40 was observed | 93% | 17% | 14% | 99% | 95 | 0.77 | 81 | 70 | – | – |
| c1ccc2c(c1)SCc1c-2[nH]c2ccccc12 [PD-146176, reference compound] | – | – | – | – | – | – | – | – | – | – | – | – | – | – | 16 | – |
| O=C(/C=C/c1cccc(Oc2ccccc2)c1)c1ccc(OCCCOc2ccc(C(=O)/C=C/c3cccc(Oc4ccccc4)c3)cc2)cc1 [c2, (2E,2′E)-1,1′-((propane-1,3-diylbis(oxy))bis(4,1-phenylene))bis(3-(3-phenoxyphenyl)prop-2-en-1-one)] | 17 ± 1.4 | 29 ± 4.2 | 43 ± 2.8 | 55 ± 4.2 | 55 ± 4.2 | stabilized β-sheet assemblies that did not evolve further into insoluble fibrillar aggregates | 100% | No | 8% | no | 71 | −0.89 | 2 | 22 | – | 55 |
